Measured values: PubChem BioAssay (NCI)
Several values for one entry are separate records, joined by “and”; a condition that tells them apart may be missing. Identical values can stand only once.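 Results reflect a 48-hour exposure of cells in 96-well plates to compound at five concentrations. At the GI50, growth is halved. TGI: total growth inhibition.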

Assays:
Assay in all cases: DTP human tumour cell line panel, 48 h
[1] = test system: 786-0 renal
[2] = test system: UACC-257 melanoma
[3] = test system: SK-MEL-28 melanoma
[4] = test system: TK-10 renal
[5] = test system: MALME-3M melanoma
[6] = test system: OVCAR-8 ovarian
[7] = test system: UACC-62 melanoma
[8] = test system: MOLT-4 leukemia
[9] = test system: EKVX NSCLC
[10] = test system: MDA-MB-435

| Compound | TGI [1] | TGI [2] | TGI [3] | TGI [4] | TGI [5] | TGI [6] | TGI [7] | TGI [8] | TGI [9] | GI50 [1] | GI50 [2] | GI50 [9] | GI50 [4] | GI50 [5] | GI50 [6] | GI50 [7] | GI50 [3] | GI50 [8] | GI50 [10] | TGI [10] |
| --- | --- | --- | --- | --- | --- | --- | --- | --- | --- | --- | --- | --- | --- | --- | --- | --- | --- | --- | --- | --- |
| Cc1coc2c1C(=O)C(=O)c1ccccc1-2 | 3.24 µM | 0.542 µM | 3.09 µM | 3.3 µM | 2.96 µM | 1.25 µM | 3.25 µM | 6.03 µM |  |  |  |  |  |  |  |  |  |  |  |  |
| Cn1c(=O)nc2n(-c3ccc(Cl)cc3)c(-c3ccccc3)c(-c3ccccc3)nc-2c1=O | > 100 µM | 66.9 µM | 86.2 µM | > 100 µM | > 100 µM | > 100 µM | 32.5 µM | 53.4 µM | > 100 µM |  |  |  |  |  |  |  |  |  |  |  |
| COC(=O)c1cccc2c3ccccc3c3ccccc3c12 | > 100 µM | > 100 µM | > 100 µM | > 100 µM | > 100 µM | 58.2 µM | > 100 µM | 61.7 µM | > 100 µM |  |  |  |  |  |  |  |  |  |  |  |
| C/C(=N\NC(N)=S)c1ccc(C)c(C)c1 | > 100 µM | > 100 µM | > 100 µM | > 100 µM | 94.1 µM | > 100 µM | > 100 µM | 90.2 µM | > 100 µM |  |  |  |  |  |  |  |  |  |  |  |
| CCCCCCCCOCC(O)CO (stereo unspecified) | > 100 µM | > 100 µM | > 100 µM | > 100 µM | > 100 µM | > 100 µM | > 100 µM | > 100 µM | > 100 µM |  |  |  |  |  |  |  |  |  |  |  |
| O=C1C(=C2CCCC2)CCC1CN1CCCCC1 (stereo unspecified) | 26.4 µM | 34.8 µM | 31.3 µM | 27.1 µM | 30.5 µM | 43.4 µM | 34 µM | 41.9 µM | 35.4 µM |  |  |  |  |  |  |  |  |  |  |  |
| N#Cc1c(-c2ccccc2)cc(-c2ccc(N)cc2)[nH]c1=O | > 100 µM | > 100 µM | > 100 µM | > 100 µM | > 100 µM | > 100 µM | > 100 µM | > 100 µM | > 100 µM |  |  |  |  |  |  |  |  |  |  |  |
| CC(C)(C)OP(=O)(OC(C)(C)C)C(O)c1ccc(/C=C(\C#N)C(N)=O)cc1 (stereo unspecified) | > 100 µM | > 100 µM | > 100 µM | > 100 µM | > 100 µM | > 100 µM | > 100 µM | > 100 µM | > 100 µM |  |  |  |  |  |  |  |  |  |  |  |
| O=S(=O)(NCCNc1nccc(-c2c(-c3ccc(F)c(O)c3)nc3sccn23)n1)c1ccc(Cl)cc1 | 13.6 µM | > 50 µM |  | 34.6 µM | 22.7 µM | 36.7 µM | 13 µM |  | > 50 µM | 3.38 µM | 2.53 µM | 2.19 µM | 5.16 µM | 1.69 µM | 2.18 µM | 0.967 µM |  |  |  |  |
| COc1ccc(C(C)c2cc(OC)c(OC)c(OC)c2)cc1 (stereo unspecified) | > 50 µM | > 50 µM | > 50 µM | > 50 µM |  | > 50 µM | > 50 µM | > 50 µM | > 50 µM | 0.213 µM | 32.3 µM | 0.373 µM | > 50 µM |  | 0.263 µM | 0.27 µM | 25.2 µM | 0.264 µM |  |  |
| COC(=O)CCC(=O)N1C/C(=C\c2ccccc2)C(=O)/C(=C/c2ccccc2)C1 | 3.75 µM | 4.11 µM | 4.24 µM | 13.2 µM | 4.62 µM | 14.6 µM | 3.61 µM | 7.77 µM | 14.3 µM |  |  |  |  |  |  |  |  |  |  |  |
| Nc1ncnc2c1ncn2C1OC(COS(N)(=O)=O)C(O)C1O (stereo unspecified) | 0.00465 µM and 0.0433 µM |  | 0.00521 µM and 0.0509 µM |  |  | 0.00394 µM |  | 0.109 µM |  | 0.00213 µM and 0.0204 µM |  |  |  |  | < 0.001 µM |  | 0.00225 µM and 0.0221 µM | 0.0219 µM | 0.00184 µM and 0.018 µM | 0.00356 µM and 0.0355 µM |
| CCC/C=C\C=C\C1(NS(=O)(=O)c2ccc(C)cc2)CCC(C(C)(C)C)CC1 (stereo unspecified) | 29.9 µM | 39 µM |  | 69.9 µM | 47.9 µM |  | 88.7 µM | 24 µM | 62.6 µM |  |  |  |  |  |  |  |  |  |  |  |
| CC1=CC(C)(c2c[nH]c3ccccc23)CC(C)(C)c2c1[nH]c1ccccc21 (stereo unspecified) | 27.1 µM | 41.2 µM | 30.1 µM | > 100 µM | 35 µM | 29.8 µM | 36.6 µM | 27.6 µM | 39.8 µM |  |  |  |  |  |  |  |  |  |  |  |
| CN(C)CCC(/C=C/c1ccccc1)=N\Nc1ccc(Cl)c(Cl)c1 | 9.26 µM | 9.77 µM | 22.6 µM | 6.18 µM | 32.8 µM | 7.8 µM | 7.25 µM | 6.63 µM | 13.1 µM |  |  |  |  |  |  |  |  |  |  |  |
| COc1ccc(/C(C)=N/NC(=O)CSc2nc3ccccc3c(=O)n2CCc2ccc(S(N)(=O)=O)cc2)cc1 | 3.44 µM | 5.57 µM | 3.3 µM | 3.98 µM | 3.44 µM |  | 4.93 µM | 84.2 µM | 12.8 µM | 1.79 µM | 2.39 µM | 2.85 µM | 1.95 µM | 1.72 µM |  | 2.2 µM | 1.75 µM | 4.2 µM |  |  |
